{"source": "ChEMBL document CHEMBL4480401", "about": "“Determination of Ligand Binding Epitope Structures Using Polarization Transfer from Hyperpolarized Ligands” (J Med Chem, 2019)", "biological_target": "T1, Dihydrofolate reductase (Homo sapiens) (UniProt P00374)", "T1 sequence (whole entry)": "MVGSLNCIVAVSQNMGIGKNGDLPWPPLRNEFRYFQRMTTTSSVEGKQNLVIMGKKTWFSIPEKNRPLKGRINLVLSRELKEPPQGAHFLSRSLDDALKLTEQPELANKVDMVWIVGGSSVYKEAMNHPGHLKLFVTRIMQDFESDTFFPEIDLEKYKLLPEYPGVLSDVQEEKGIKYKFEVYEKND", "assay": "Binding affinity to [13C]-labeled DHFR DHFR (unknown origin) expressed in Escherichia coli BL21(DE3) using hyperpolarized compound sample at 1.6 mM by dissolution dynamic nuclear polarization and NMR spectroscopy", "note": "Activity calls are given as the source filed them. The calls are words filed in the database; no cut-off is given here.", "data": [{"smiles": "Nc1nc(=O)c2nc(CNc3ccc(C(=O)N[C@@H](CCC(=O)O)C(=O)O)cc3)cnc2[nH]1", "values": [{"measurement": "Activity", "value": "Active"}]}]}
